Experiment: gradient 5% acetonitrile 3 min, to 50% in 2 min, to 85% in 15 min, held 3 min, 100 µL/min
Details: column: Zorbax Extend-C18 2.1 x 50 mm; eluents: water / acetonitrile, 0.1% formic acid
Method in brief: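 Retention times of pure standards were taken from adduct peaks that were selected by computer and manually inspected. Over 3 months, mixtures of ~100 molecules were run by HPLC–quadrupole time-of-flight mass spectrometry in positive and negative ionization mode. The Zorbax Extend-C18 column (2.1 × 50 mm, 1.8 μm) ran at 100 μL/min in water and acetonitrile, each containing 0.1% formic acid, with 40 μL dead volume and 900 μL dwell volume.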

Structure (SMILES) | RP-LC retention time
O=C(NCc1cc(F)ccc1F)C1CCN(c2cnc(N3CCCC3)nc2)CC1 | 667 s
O=C(CC1CCN(C(=O)Nc2ccc(Br)cc2)CC1)N1CCCCC1 | 830 s
O=C(Nc1ncc([N+](=O)[O-])s1)c1ccc([N+](=O)[O-])c(Cl)c1 | 946 s
Cc1sc(C)c(S(=O)(=O)Nc2cccc(F)c2)c1-c1cc(C(F)(F)F)on1 | 1140 s
COc1ccc(CN(Cc2cc(=O)n3cccc(C)c3n2)CC(C)C)cc1OC | 635 s
CC(C)(C)c1noc(-c2cccn3c(CC(=O)NC4CCCCC4)nnc23)n1 | 754 s
CN1C(=O)c2cc(C(=O)N3CCN(c4ncccn4)CC3)nn2CC1(C)C(=O)NC1CCCCC1 (configuration not stated) | 702 s
O=C(Nc1cnc(N2CCCC2)nc1)c1cc(F)cc(F)c1 | 765 s
Cc1cc(N(C)C)n2nc(-c3ccc(Cl)cc3)c(C)c2n1 | 744 s
COc1ccc(CCNc2nc(N3CCc4cc(OC)c(OC)cc4C3)c3cc(OC)c(OC)cc3n2)cc1OC | 833 s
CCN(CC)C(=O)C1Cn2cccc2C(=O)N1C (configuration not stated) | 606 s
CCOC(=O)C1=C(CN2CCC(C)CC2)NC(=O)NC1c1cccs1 (configuration not stated) | 611 s
Cc1ccc(OCC(O)CN2CCN(CC(O)COC(C)C)CC2)c(C(C)(C)C)c1 (configuration not stated) | 607 s
CCN1CCN(CCNC(=O)C2CCN(Cc3cn(C)c4ccc(Cl)cc34)CC2)CC1 | 561 s
CNC(=O)Cc1csc(NC(=O)c2csc(Nc3cccc(C)n3)n2)n1 | 711 s
c1ccc(-c2nc3cc(-c4noc(-c5cccnc5)n4)ccc3o2)cc1 | 1290 s
COc1ccc(-c2nnc(-c3cccnc3NCc3ccc(OC)c(OC)c3)o2)cc1 | 1060 s
COc1ccc(C(O)Cn2ccn3nc(-c4cc(C)ccc4C)cc3c2=O)cc1OC (configuration not stated) | 879 s
CCN1CCCn2nc(C3CCN(S(=O)(=O)c4ccc(C)c(C)c4)CC3)cc2C1=O | 891 s

Structure (SMILES) | RP-LC retention time
Cc1ccc(-n2c(=O)c3c(cc(C)n3C)n(CC(=O)Nc3ccc(C)cc3Cl)c2=O)cc1 | 960 s
O=C(c1ccccc1Cl)N1CCN(c2nc(CN3CCOCC3)cs2)CC1 | 600 s
Cc1cc(OC(C)C(=O)N[C@H](C(=O)O)c2ccccc2)c2c3c(c(=O)oc2c1)CCC3 (some centres not stated) | 843 s
COc1cc(CSc2nc(CC(=O)NCc3cccs3)cs2)cc(OC)c1 | 873 s
COc1ccc(Cc2nc3nccc(-c4cc(OC)c(OC)c(OC)c4)n3n2)cc1 | 860 s
COc1ccc(CN2CCC([C@@H]3CNC[C@H]3CO)CC2)c(Cl)c1OC | 551 s
CCOC(=O)c1c(CN2CCN(CCO)CC2)n(C)c2cc(Br)c(OC(C)=O)cc12 | 679 s
C=CCc1c(C)c(C#N)c2nc3ccccc3n2c1NCCOCCO | 589 s
CC(C)CCN1CCC(N2CCN(S(=O)(=O)Cc3cccc(Cl)c3)CC2)C1=O (configuration not stated) | 699 s
Cc1ccc(-c2nnc(Cc3nc(-c4ccc(C(F)(F)F)cc4)no3)o2)cc1F | 1180 s
CCc1nnc2cc(N3CCN(S(=O)(=O)c4ccc(C(C)C)cc4)CC3)cnn12 | 820 s
CCn1cc(S(=O)(=O)N2[C@H]3CC[C@@H]2c2cnc(-c4ccccc4)nc2C3)cn1 | 868 s
CCc1ccc2nc(Nc3ncc4c(n3)CC(c3cccc(Cl)c3)CC4=O)nc(C)c2c1 (configuration not stated) | 896 s
Cc1ccc(-c2ccc(N3CCCC(C(=O)N4CCCC4)C3)nn2)cc1 (configuration not stated) | 647 s
CC(C)c1nc2ccc(C(=O)NCCN(C)C3CCCCC3)cc2o1 | 656 s
Cc1cc(C)nc(N2CCN(c3ccc(Cl)cc3)CC2)n1 | 1050 s
Cc1nc(C)c(C(=O)N2CC(F)(F)C[C@H]2COc2ccc3c(c2)CCC3)s1 | 1080 s
COC(=O)c1ccc2c(=O)n(-c3cc(C)cc(C)c3)c(N3CCN(C(C)C)CC3)nc2c1 | 695 s
CN1CCN(c2nc3cc(C(F)(F)F)ccc3n3cccc23)CC1 | 768 s

The next lines start with the values.

RP-LC retention time | Structure (SMILES)
842 s | O=C(O)CSc1ccc(NC(=O)Nc2ccccc2F)cc1
560 s | Cc1ccc2nc(C(=O)NC3CCN(Cc4ccccc4)CC3)cn2c1
684 s | CCC(C)N(CCNC(=O)c1cc(C)nn1-c1ccccc1)C1CCCCC1 (configuration not stated)
597 s | CN1C(=O)c2cc(C(=O)NCCN3CCCCC3)nn2CC1(C)C(=O)NCc1ccccc1 (configuration not stated)
715 s | Cc1cccc(-c2nc3ccccn3c2NC(=O)Nc2cc(F)ccc2F)c1
1020 s | O=C(Nc1ccc(Cl)cc1)C(=O)c1cn(CC(=O)N2CCCC2)c2ccccc12
836 s | O=C(Cn1cccc1-c1nnc(C2CCC2)o1)NCc1ccc2c(c1)OCO2
947 s | Cc1ccc(-n2nc(N3CCCN(S(=O)(=O)c4ccccc4)CC3)ccc2=O)cc1C
810 s | COc1cccc(NC(=O)C2CCN(S(C)(=O)=O)c3ccccc3O2)c1 (configuration not stated)
1110 s | COC(=O)c1ccc2c(=O)n(-c3ccc(Cl)cc3)c(N3CCSC3)nc2c1
615 s | COc1ccc(N2CCN(C(=O)c3cn4ccc(C)cc4n3)CC2)cc1
701 s | Cc1ccc(Nc2c(-c3ccccc3O)nc3cc(C)ccn23)cc1
1030 s | COc1ccc(Cl)cc1NC(=O)NCCC1CCN(S(=O)(=O)c2ccc(F)cc2)CC1
792 s | COc1cc(C2CC(=O)N(CC(=O)N3CCCC3)c3ccccc3S2)cc(OC)c1OC (configuration not stated)
964 s | Cc1ccc(Cl)cc1N1CCN(C(=O)C2CCN(S(=O)(=O)c3cn(C(C)C)cn3)CC2)CC1
573 s | CC(C)c1nccn1C1CN(C(=O)COc2ccc(F)cc2)C1
769 s | Cc1ccc(-c2ncccc2CNS(=O)(=O)c2ccc(C)c(F)c2)cc1
723 s | Cc1cccc(NC(=O)N2CCC3(CC2)NC(=O)c2ccc(F)cc2N3C)c1
838 s | Fc1ccccc1CNc1cc(-n2cccn2)ncn1
724 s | Nc1cc(C2CCN(C(=O)/C=C/c3ccccc3)CC2)no1
933 s | CCOc1ccc(/C=C/c2nc3ccccc3n(C)c2=O)cc1
938 s | Cc1nc(-c2csc(S(=O)(=O)N3CCC(C(=O)NCCc4ccc(Cl)cc4)CC3)c2)no1
976 s | CCOC(=O)C1CCN(S(=O)(=O)c2cc(-c3nnc(-c4ccccc4)o3)ccc2OC)CC1
717 s | Cc1ccc(Cn2c(CN3CCC(C(=O)N4CCOCC4)CC3)cc3ccccc32)cc1
943 s | O=C([C@@H]1C[C@H](F)CN1S(=O)(=O)c1ccc(F)c(F)c1)N1CCc2ccccc2C1

RP-LC retention time | Structure (SMILES)
765 s | Cc1ccc2c(c1)cc(S(=O)(=O)c1ccccc1)c(=O)n2CC(=O)NCC1CCCO1 (configuration not stated)
1010 s | Cn1c(-c2cccs2)c(CNC(=O)Nc2ccc3c(c2)OCO3)c2ccccc21
769 s | COc1cc(C(=O)N2CCC[C@@H]2C(=O)NCc2csc(-c3ccccc3)n2)cc(OC)c1OC
923 s | Cc1cc2nn(CC(=O)NCc3ccco3)c(=O)n2c(Nc2ccc(C)c(F)c2)n1
885 s | CCc1noc(NC(C)=O)c1-c1ccc(C)c(S(=O)(=O)Nc2cc(C)cc(C)c2)c1
725 s | Cc1cccc(OCc2nc(-c3ccnc(N4CCCC4)c3)no2)c1
759 s | CC1CCCCN1c1ccn2c(=O)n(CC(=O)Nc3ccc(F)cc3)nc2n1 (configuration not stated)
872 s | CSc1ccc(CNS(=O)(=O)c2cc3c(s2)CCN(C(=O)C2CC2)C3)cc1
756 s | Cc1nc(OCC(=O)Nc2c(C)cccc2C)c2ccccc2n1
823 s | Cn1cnc(S(=O)(=O)N2CCC(C(=O)N3CCN(c4cccc(C(F)(F)F)c4)CC3)CC2)c1
1110 s | Cc1ccc(C2c3[nH]c4ccccc4c3CCN2C(=O)C2CC2)cc1 (configuration not stated)
554 s | Cc1cnc(C(=O)N2C[C@@H](Oc3cccnc3)C[C@H]2C(=O)NC2CC2)cn1
873 s | CC(=O)Nc1ccc2c(c1)CN(C(=O)c1c(F)cccc1F)C(C(=O)N1CCCC1)C2 (configuration not stated)
1000 s | CCCNc1nc(-c2nnc(-c3cccc(C)c3)o2)nc2ccccc12
600 s | CC1(C)C(=O)N(CC(=O)N2CCN(c3ccccn3)CC2)c2ccccc21
998 s | CC(C)Cn1cc(CCNS(=O)(=O)c2ccc(Br)cc2)c2cccnc21
842 s | CCOC(=O)C(C)Oc1cccc2c(=O)n(CC(=O)Nc3ccc([N+](=O)[O-])cc3)ccc12 (configuration not stated)
1060 s | COc1cccc(N2CCN(S(=O)(=O)c3cc(-c4nnc(C5CCC5)o4)co3)CC2)c1
650 s | COCCn1ncc(N2CCC(C(=O)NCc3ccc(C)o3)C2)cc1=O (configuration not stated)
627 s | CCN(CCNC(=O)c1cccc2c1SCCC2=O)Cc1ccccc1
781 s | COc1ccccc1CCC(=O)Nc1cc(-c2cccnc2)no1
615 s | O=C(NCCCN1CCOCC1)c1ccc2c(c1)N(C(=O)c1ccc(F)cc1)CC2
592 s | C=CCNC(=O)N1CC(=O)Nc2ccccc21
652 s | O=C(Cc1ccccc1F)Nc1cnc(-c2cccnc2)nc1

From the METLIN SMRT retention time set (Domingo-Almenara et al. 2019)
